Test system: NF-κ B
Test: Inhibitory activity of NF-κ B activation, luciferase reporter assay in HepG2 under TNF-α stimulation
Format: cell-based, human
Conditions: HepG2, TNF-α (40 ng/ml), 4 hours; for inhibition at 1 µg/mL / inhibition at 10 µg/mL: Homo sapiens; for Inhibitory Ratio of NF-κ B Activation(%) Drug Concentration 1 μg/mL / inhibition at 1 µg/mL: 1 μg/mL; for inhibition at 1 µg/mL: read-out: Inhibitory Ratio of NF-κ B Activation(%) Drug Concentration 1 μg/mL; for Inhibitory Ratio of NF-κ B Activation(%) Drug Concentration 10 μg/mL / inhibition at 10 µg/mL: 10 μg/mL; for inhibition at 10 µg/mL: read-out: Inhibitory Ratio of NF-κ B Activation(%) Drug Concentration 10 μg/mL
Summary of the method: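 Readout is firefly luciferase luminescence, expressed as inhibition versus compound-free wells. Before this, HepG2 cells carrying a transiently transfected 5×NF-κB-site luciferase plasmid (6–24 h post-transfection) received test compound plus TNF-α (40 ng/ml) for 4 h.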

Row | SMILES | Inhibitory Ratio of NF-κ B Activation(%) Drug Concentration 1 μg/mL [%] | Inhibitory Ratio of NF-κ B Activation(%) Drug Concentration 10 μg/mL [%] | inhibition at 1 µg/mL [%] | inhibition at 10 µg/mL [%]
1 | Cc1ccc(O)c(C(=O)Nc2cc(C(F)(F)F)cc(C(F)(F)F)c2)c1 [compound 10] | 95.8 | 99.4 | – | –
2 | O=C(Nc1cc(C(F)(F)F)cc(C(F)(F)F)c1)c1cc(Cl)ccc1O [Compound No. 80] | 46.3 | 73.0 | – | –
3 | CC(=NOCc1ccccc1)c1ccc(O)c(C(=O)Nc2cc(C(F)(F)F)cc(C(F)(F)F)c2)c1 [Compound No. 15] | 94.5 | 99.2 | – | –
4 | O=C(Nc1cc(C(F)(F)F)cc(C(F)(F)F)c1)c1cc(-c2cccs2)ccc1O [Compound No. 28] | 79.5 | 97.8 | – | –
5 | O=C(Nc1ccc(O)c(C(=O)Nc2cc(C(F)(F)F)cc(C(F)(F)F)c2)c1)c1ccccc1 [Compound No. 45] | – | 63.4 | – | –
6 | O=C(Nc1cc(C(F)(F)F)cc(C(F)(F)F)c1)c1cccc(-c2ccccc2)c1O [Compound No. 249, N-[3,5-bis(trifluoromethyl)phenyl]-2-hydroxy-3-phenylbenzamide] | – | – | 86.6 | 90.7
7 | O=C(Nc1cc(C(F)(F)F)cc(C(F)(F)F)c1)c1cc2ccccc2cc1O [Compound No. 72] | 94.6 | 95.0 | – | –
8 | Cc1ccc(O)c(C(=O)Nc2cc(C(F)(F)F)ccc2C)c1 [Compound No. 102] | 89.3 | 98.3 | – | –
9 | O=C(Nc1cc(C(F)(F)F)cc(C(F)(F)F)c1)c1cc(F)ccc1O [compound 3] | 81.5 | 94.3 | – | –
10 | O=C(Nc1cc(C(F)(F)F)cc(C(F)(F)F)c1)c1cc(Cl)cc(Cl)c1O [Compound No. 56] | 89.4 | 95.1 | – | –
11 | CCOC(=O)c1sc(NC(=O)c2cc(Br)ccc2O)nc1C(C)(C)C [Compound No. 202, 2-(5-Bromo-2-hydroxybenzoyl)amino-4-[(1,1-dimethyl)ethyl]thiazole-5-carboxylic acid ethyl ester] | – | – | 84.5 | 92.4
12 | COc1ccc(C(=O)Nc2cc(C(F)(F)F)cc(C(F)(F)F)c2)c(O)c1 [Compound No. 65] | 83.3 | 89.8 | – | –
13 | O=C(Nc1nc(-c2c(F)c(F)c(F)c(F)c2F)cs1)c1cc(Cl)ccc1O [Compound No. 266, 5-Chloro-2-hydroxy-N-[4-(2,3,4,5,6-pentafluorophenyl)thiazol-2-yl]benzamide] | – | – | > 99.9 | –
14 | O=C(Nc1cc(C(F)(F)F)cc(C(F)(F)F)c1)c1cc(S(=O)(=O)n2cccc2)ccc1O [Compound No. 42, N-[3,5-Bis(trifluoromethyl)phenyl]-2-hydroxy-5-(pyrrole-1-sulfonyl)benzamide] | – | – | 84.4 | 98.1
15 | COc1ccc(C)cc1NC(=O)c1cc(Cl)ccc1O [Compound No. 178] | – | 89.7 | – | –
16 | O=C(Nc1cc(F)cc(F)c1)c1cc(Cl)ccc1O [Compound No. 180] | 90.7 | 93.7 | – | –
17 | CCCCc1ccc([N+](=O)[O-])cc1NC(=O)c1cc(Cl)ccc1O [Compound No. 176] | 96.0 | 99.5 | – | –
18 | CC(C)(C)CC(C)(C)c1ccc(O)c(C(=O)Nc2cc(C(F)(F)F)cc(C(F)(F)F)c2)c1 [Compound No. 60] | 94.0 | 99.1 | – | –
19 | O=C(Nc1cc(C(F)(F)F)cc(C(F)(F)F)c1)c1c(O)c(Cl)cc(Cl)c1Cl [Compound No. 61] | 95.1 | 97.2 | – | –
20 | O=C(Nc1cc(C(F)(F)F)cc(C(F)(F)F)c1)c1cccc(Cl)c1O [Compound No. 64] | 84.9 | 94.1 | – | –
21 | O=C(Nc1cc(C(F)(F)F)cc(C(F)(F)F)c1)c1ccccc1O [compound 2] | 93.3 | 95.6 | – | –

Row | SMILES | Inhibitory Ratio of NF-κ B Activation(%) Drug Concentration 1 μg/mL [%] | Inhibitory Ratio of NF-κ B Activation(%) Drug Concentration 10 μg/mL [%] | inhibition at 1 µg/mL [%] | inhibition at 10 µg/mL [%]
22 | O=C(Nc1cc(C(F)(F)F)cc(C(F)(F)F)c1)c1cc([N+](=O)[O-])ccc1O [Compound No. 8, N-[3,5-bis(trifluoromethyl)phenyl]-2-hydroxy-5-nitrobenzamide] | – | – | 92 | 99.2
23 | COc1ccccc1Oc1ccc(C(F)(F)F)cc1NC(=O)c1cc(Cl)ccc1O [Compound No. 114] | 91.8 | 98.2 | – | –
24 | N#Cc1ccc(O)c(C(=O)Nc2cc(C(F)(F)F)cc(C(F)(F)F)c2)c1 [compound 9, N-[3,5-Bis(trifluoromethyl)phenyl]-5-cyano-2-hydroxybenzamide] | – | – | 92.2 | 99.6
25 | COC(=O)c1ccc(O)c(C(=O)Nc2cc(C(F)(F)F)cc(C(F)(F)F)c2)c1 [Compound No. 35, N-[3,5-bis(trifluoromethyl)phenyl]-4-hydroxyisophthalamic acid methyl ester] | – | – | 88.2 | 96.4
26 | CCOC(=O)c1sc(NC(=O)c2cc(-c3ccc(F)cc3)ccc2O)nc1-c1ccccc1 [Compound No. 226] | 45.0 | 85.8 | – | –
27 | CCc1nc(NC(=O)c2cc(Br)ccc2O)oc1CC [Compound No. 234, 5-Bromo-N-(4,5-diethyloxazol-2-yl)-2-hydroxybenzamide] | – | – | 29.1 | 63.1
28 | CN(C)S(=O)(=O)c1ccc(O)c(C(=O)Nc2cc(C(F)(F)F)cc(C(F)(F)F)c2)c1 [Compound No. 41, N-[3,5-Bis(trifluoromethyl)phenyl]-5-dimethylsufamoyl-2-hydroxybenzamide] | 42.2 | 95.9 | – | –
29 | COC(=O)c1cc(NC(=O)c2cc(Cl)ccc2O)cc(C(F)(F)F)c1 [Compound No. 108, 5-chloro-2-hydroxy-N-[3-methoxycarbonyl-5-(trifluoromethyl)phenyl]benzamide] | – | – | 41.5 | 88.4
30 | COc1cc(Cl)nc(NC(=O)c2cc(Cl)ccc2O)n1 [Compound No. 241] | 25.5 | 78.9 | – | –
31 | O=C(Nc1nnc(C(F)(F)F)s1)c1ccccc1O [Compound No. 237, 2-Hydroxy-N-(5-trifluoromethyl-1,3,4-thiadiazol-2-yl)benzamide] | – | – | – | 81.9
32 | Cc1nc(NC(=O)c2cc(Br)ccc2O)sc1-c1ccc(F)cc1 [Compound No. 193, 5-Bromo-N-[4-methyl-5-(4-fluorophenyl)thiazol-2-yl]-2-hydroxybenzamide] | – | – | – | 82
33 | CCOc1ccc(OCC)c(NC(=O)c2cc(Cl)ccc2O)c1 [Compound No. 152] | 35.1 | 95.3 | – | –
34 | COc1cc(NC(=O)c2cc(Cl)ccc2O)cc(C(F)(F)F)c1 [Compound No. 105] | 94.6 | 97.5 | – | –
35 | O=C(Nc1nc(-c2cccc(C(F)(F)F)c2)cs1)c1cc(Cl)ccc1O [Compound No. 265, 5-Chloro-2-hydroxy-N-{4-[3-(trifluoromethyl)phenyl]thiazol-2-yl}benzamide] | – | – | > 99.9 | –
36 | CN(C)C(=O)c1ccc(O)c(C(=O)Nc2cc(C(F)(F)F)cc(C(F)(F)F)c2)c1 [Compound No. 38, N^3-[3,5-bis(trifluoromethyl)phenyl]-4-hydroxy-N^1,N^1-dimethylisophthalamide] | – | – | 16 | 87.1
37 | Cc1ccc(S(=O)(=O)c2ccc(Cl)cc2NC(=O)c2cc(Cl)ccc2O)cc1 [Compound No. 168] | 46.7 | 97.8 | – | –
38 | CC(=O)Oc1ccc(Cl)cc1C(=O)Nc1nc(C(C)(C)C)c(C(=O)C(C)(C)C)s1 [Compound No. 200] | 95.0 | 97.7 | – | –
39 | COc1ccc(OC)c(NC(=O)c2cc(Cl)ccc2O)c1 [Compound No. 158] | 52.4 | 96.8 | – | –
40 | CCOC(=O)c1sc(NC(=O)c2cc(-c3cccs3)ccc2O)nc1-c1ccccc1 [Compound No. 230, 2-[2-Hydroxy-5-(2-thienyl)benzoyl]amino-4-phenylthiazole-5-carboxylic acid ethyl ester] | – | – | 40.8 | 84.8
41 | O=C(Nc1cc(C(F)(F)F)ccc1Oc1ccc2ccccc2c1)c1cc(Cl)ccc1O [Compound No. 110] | 96.5 | 98.7 | – | –
42 | N#CC(=Cc1ccc(O)c(C(=O)Nc2cc(C(F)(F)F)cc(C(F)(F)F)c2)c1)C(=O)O [Compound No. 18] | 59.7 | 98.5 | – | –
